Results on 2 compounds are retold here after US20030045524A1, “Alpha-2-adrenergic agonist/fatty acid compositions” (priority 2001, published 2003).

In one series the test system is Intra Ocular Pressure. The following applies: ion pair formulation of 0.131% bromonidine and 0.126% linoleic acid. The text has this: The complex is an ion pair formulation of 0.131% bromonidine and 0.126% linoleic acid.
The subject of series [1] is Rabbit Intraocular Pressure. The following applies: 0.2% complex; for INTRAOCULAR PRESSURE: mean, n=8. As for the experimental part: In this study, the animals were placed into three groups consisting of a mix of age, size and sex.
One group of animals (both sexes) was used per screening study. The test compound (20 L of 0.2% bromonidine-linoleic acid ion pair complex) was administered to the surface of the cornea using an automatic pipette or an appropriate device.
The following general procedure for administering the test compound employed in this study is presented below:
1. Make sure that the 0.25% proparacaine Opthetic5 mixture (topical local anesthetic), test compounds, and commercially available treats are available.
2. Turn on the Digilab Modular One J Pneuma Tonometer (pneumatonometer) [BioRad, Cambridge, Mass.]; it needs approximately 15 minutes to warm up. Turn on gas supply or air pump.
3. Hold probe vertically with the point tip down and press “calibration check” for “zero”.
4. Wipe the pneumatonometer probe with an alcohol swab, and inspect the tip membrane for holes.
5. Set the external calibration device (air or water manometer) to 25 mm Hg, place the pneumatonometer probe in the calibration device to ensure that it corresponded to 25 2 mm Hg.
6. Obtain a rabbit. Make sure the recording data sheets are at hand.
7. Gently restrain the rabbit via a commercial restrainer or a cotton towel. Measure the pupil diameter with the specialized ruler for each eye and record the values on the sheets provided. If the eyes are too dark to obtain a value by this method, a specialized penlight may be used. Obtain a pupil diameter measurement by shining the penlight on the cornea for one second.
8. Slide the upper eyelid up with the thumb and visually assess and score the degree of ocular surface redness. Record the value for each eye on the sheet provided.
9. Put one drop of 0.25% proparacaine Opthetic5 (50:50 mix of 0.5% proparacaine Opthetic5+Cellufresh5) on the surface of each eye. Wait one or more minutes for ophthetic to take effect.
10. Place the pnematonometer tip on one eye at the site where the curvature of the cornea is greatest. Let the probe shank travel to the black line, not the red line. Persist until a stable reading with the standard deviation below 1.0 is obtained. Repeat the procedure for the contralateral eye. Record the data. (Note: If the animal is upset by the restraint, the reading will be artificially high and cannot be used. Use gentle restraint).
11. At the end of the 0, 6, 24, 30, 48, 54, 72, 78 and 96 hour measurements, use an automatic pipette to apply 20 L of the test compound to the surface of the cornea of one eye. After the 102 hour measurements, the eyes will be washed out with Refresh5 and Prefrin5.
12. Give the animal a treat and return the animal to its cage.
13. Repeat steps 7 to 11 on the remaining animals in the group.
The following general procedure for measuring the effects of the test compound employed in this study is as follows: a reading is conducted at 0, 2, 4, 6, 24, 26, 28, 30, 48, 50, 52, 54, 72, 74, 76, 78, 96, 98, 100, and 102 hours. The pneumatonometer is calibrated before use with a manometer and the probe tip is wiped with an alcohol swab. One drop of 0.25% proparacaine Opthetic5, a corneal anesthetic, is placed on the cornea. Allow sufficient time (approximately 1 minute) for it to anesthetize the cornea before placing the probe on the eye. The eye is gently opened by the person doing the tonometer reading. The probe is placed on the cornea at the point of greatest curvature and a stable reading is obtained. The probe is held parallel to the floor and perpendicular to the line of the rabbit's sight. The reading is repeated until a reasonable reading can be obtained. The piston should be between the red and black lines or at the black line on the probe.
Values are mean S.E.M. n=8.

In another series the test system is monkeys. The following applies: average of 6 monkeys, 0.2%, scale S=0 to 4. On the procedure: The relative sedative effects of bromonidine-linoleic acid (compound 65) were compared to saline (compound 62) and brimonidine tartrate (compound 60). This study involved cross overs and a one-week wash out in between the administration of the various compounds.
As done in a previous experiment, the following method was followed:
1. 6 trained monkeys were placed in chairs and allowed to acclimate for approximately 30 minutes.
2. Individual monkeys were brought into the “testing room” where they were allowed to adjust to the new environment for approximately 2 minutes. […] Sedation scores were recorded on an observation sheet.
3. The monkey was returned to the group of animals assigned to this study.
4. 2 baseline readings were done at T−0.5 and 0 hour. After the 0 hour reading one drop of the test compound was administered to the right eye.
5. Steps 2 & 3 were repeated at T=0.5, 1, 2, 3 and 4 hour.
6. Animals were monitored until they recover from effects of the drug.
5. Scoring of Sedation was based on the following scale:
S=0 Monkey is quiet, but slightly active.
S=1 Monkey is quiet, easy to handle for reading
S=2 Monkey is quiet, relaxed but very low in activity
S=3 Monkey is blinking eyes and yawning
8. The test compounds were coded: 62-Saline, […].
9. Test Compound Administration:
The scoring was conducted for each animal for the different test compounds. The average results are shown on table 1.

Like-named read-outs stand apart in the source and are kept apart here.

On to `Brc1c(NC2=NCCN2)ccc2nccnc12.CCCCC/C=C\C/C=C\CCCCCCCC(=O)O`, for which the “percent change of Intra Ocular Pressure” value with Intra Ocular Pressure (1 hr after administration at time 0) was −10.4%; with Intra Ocular Pressure (2 hr after administration at time 0), −16.0%; in the series on Intra Ocular Pressure (4 hr after administration at time 0) it was −09.5%; in the series with Intra Ocular Pressure (6 hr after administration at time 0) it was −09.4%. The “time for which intraocular pressure in a rabbit's eye is reduced” value in series [1] (after administration) is reported as “at least 6 hours”. In addition, the “duration of the effect of the complex on intraocular pressure” value in series [1] (after administration at time 6 hr) is on record as “less than 18 hrs”. Besides, the “INTRAOCULAR PRESSURE” value in series [1] (time 0 hr (initial, dosed after reading)) came to 25.8 mmHg; in series [1] (time 2 hr), 17.1 mmHg; in series [1] (time 4 hr), 21.1 mmHg; in series [1] (time 6 hr (dosed after reading)), 23.9 mmHg; in series [1] (time 24 hr (dosed after reading)) it was 25.6 mmHg; in series [1] (time 26 hr) it was 19.9 mmHg. Further, the “INTRAOCULAR PRESSURE” value is reported as 22.9 mmHg in series [1] (time 28 hr); 23.0 mmHg in series [1] (time 30 hr (dosed after reading)); 26.5 mmHg in series [1] (time 48 hr (dosed after reading)); 20.4 mmHg in series [1] (time 50 hr); 23.4 mmHg in series [1] (time 52 hr); 24.1 mmHg in series [1] (time 54 hr (dosed after reading)). The “INTRAOCULAR PRESSURE” value is listed as 26.8 mmHg in series [1] (time 72 hr (dosed after reading)); 21.1 mmHg in series [1] (time 74 hr); 23.9 mmHg in series [1] (time 76 hr); 25.2 mmHg in series [1] (time 78 hr (dosed after reading)); 27.9 mmHg in series [1] (time 96 hr (dosed after reading)); 20.1 mmHg in series [1] (time 98 hr). Further, the results for the “INTRAOCULAR PRESSURE” value in series [1] (time 100 hr) and in series [1] (time 102 hr) were 23.9 mmHg and 25.3 mmHg, respectively.
Turning to “brimonidine tartrate [reference compound]”, the “SEDATION SCORE” value is 0.8 in the series on monkeys (time 0 hr (baseline, before dosing)); 0.8 in the series with monkeys (time 0.5 hr after one drop to right eye); 1.7 in the series with monkeys (time 1 hr after one drop to right eye); 2.6 in the series on monkeys (time 2 hr after one drop to right eye); 2.5 in the series with monkeys (time 3 hr after one drop to right eye); 2.7 in the series with monkeys (time 4 hr after one drop to right eye). The “SEDATION SCORE” value in the series with monkeys (time −0.5 hr (baseline, before dosing)) was 0.7.
